# Results: publication PMC13231921 (Antimicrobial Agents and Chemotherapy, 2026)
# Test: Pharmacokinetics of GST-HG171 and ritonavir in plasma, alone and co-administered with itraconazole (drug-drug interaction study)
# Settings: Day 3, N = 12, median (minimum, maximum)
structure (smiles),measurement,value
"CC(C)c1nc(CN(C)C(=O)N[C@H](C(=O)N[C@@H](Cc2ccccc2)C[C@H](O)[C@H](Cc2ccccc2)NC(=O)OCc2cncs2)C(C)C)cs1 [Ritonavir, ritonavir]",Tmax,"2.50 (2.0008, 3.0011) h"
